# Reference: ChEMBL document CHEMBL5291721, “A preclinical secondary pharmacology resource illuminates target-adverse drug reaction associations of marketed drugs” (Nat Commun, 2023)
# What was measured:
# [1] = target: Prothrombin (Homo sapiens, UniProt P00734); type: functional
# [2] = target: T1, Thromboxane A2 receptor (Homo sapiens, UniProt P21731)
# T1 sequence (P21731 whole entry): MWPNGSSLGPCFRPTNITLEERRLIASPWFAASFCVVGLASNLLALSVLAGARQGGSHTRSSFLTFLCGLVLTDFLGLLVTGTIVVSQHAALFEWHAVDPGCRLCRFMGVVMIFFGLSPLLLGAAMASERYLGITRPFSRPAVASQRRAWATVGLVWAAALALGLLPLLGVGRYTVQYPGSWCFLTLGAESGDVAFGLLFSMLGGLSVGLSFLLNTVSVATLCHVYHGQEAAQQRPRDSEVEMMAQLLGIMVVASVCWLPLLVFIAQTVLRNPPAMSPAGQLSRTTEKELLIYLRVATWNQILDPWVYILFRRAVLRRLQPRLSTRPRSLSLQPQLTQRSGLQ
# [3] = target: T2, Neuropeptide Y receptor type 1 (Homo sapiens, UniProt P25929)
# T2 sequence (P25929 whole entry): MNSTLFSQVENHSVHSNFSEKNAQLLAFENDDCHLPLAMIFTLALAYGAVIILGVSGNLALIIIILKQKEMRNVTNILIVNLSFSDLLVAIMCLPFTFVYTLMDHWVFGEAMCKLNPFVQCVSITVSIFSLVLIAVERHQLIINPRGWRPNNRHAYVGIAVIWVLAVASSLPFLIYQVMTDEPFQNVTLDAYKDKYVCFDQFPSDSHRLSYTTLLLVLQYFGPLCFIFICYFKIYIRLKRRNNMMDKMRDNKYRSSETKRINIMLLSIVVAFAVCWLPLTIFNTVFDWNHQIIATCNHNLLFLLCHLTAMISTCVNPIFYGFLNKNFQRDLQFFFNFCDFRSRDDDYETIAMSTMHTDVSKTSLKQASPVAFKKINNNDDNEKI
# [4] = target: Histamine H1 receptor (Homo sapiens, UniProt P35367)
# Histamine H1 receptor, sequence (P35367 whole entry): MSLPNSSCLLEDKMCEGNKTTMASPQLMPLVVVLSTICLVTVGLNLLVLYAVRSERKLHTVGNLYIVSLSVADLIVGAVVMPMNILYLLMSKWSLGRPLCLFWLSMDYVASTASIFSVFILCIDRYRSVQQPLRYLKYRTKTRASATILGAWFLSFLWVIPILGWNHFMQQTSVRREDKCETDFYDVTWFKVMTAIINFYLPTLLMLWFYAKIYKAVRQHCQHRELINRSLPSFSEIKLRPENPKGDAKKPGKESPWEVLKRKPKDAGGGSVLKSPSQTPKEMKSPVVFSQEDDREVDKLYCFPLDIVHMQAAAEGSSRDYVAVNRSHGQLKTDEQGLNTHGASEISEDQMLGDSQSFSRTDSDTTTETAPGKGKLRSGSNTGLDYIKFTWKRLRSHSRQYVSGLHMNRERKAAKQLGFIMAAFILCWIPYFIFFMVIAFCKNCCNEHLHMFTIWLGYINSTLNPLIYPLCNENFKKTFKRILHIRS
# [5] = target: D(1A) dopamine receptor (Homo sapiens, UniProt P21728)
# D(1A) dopamine receptor, sequence (P21728 whole entry): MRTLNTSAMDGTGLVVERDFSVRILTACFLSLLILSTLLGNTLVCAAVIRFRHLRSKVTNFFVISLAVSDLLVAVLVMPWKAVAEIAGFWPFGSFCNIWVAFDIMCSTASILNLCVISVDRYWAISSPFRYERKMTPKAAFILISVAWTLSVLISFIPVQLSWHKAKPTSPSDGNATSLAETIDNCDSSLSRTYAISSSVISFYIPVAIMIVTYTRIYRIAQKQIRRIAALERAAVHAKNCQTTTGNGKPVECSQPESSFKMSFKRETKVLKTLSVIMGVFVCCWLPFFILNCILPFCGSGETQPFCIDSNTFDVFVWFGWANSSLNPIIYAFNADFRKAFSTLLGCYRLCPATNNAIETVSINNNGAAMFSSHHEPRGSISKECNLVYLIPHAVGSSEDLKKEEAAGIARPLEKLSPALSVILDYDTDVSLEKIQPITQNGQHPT
# [6] = target: T3, Alpha-1A adrenergic receptor (Homo sapiens, UniProt P35348); type: functional, cell-based
# T3 sequence (P35348 whole entry): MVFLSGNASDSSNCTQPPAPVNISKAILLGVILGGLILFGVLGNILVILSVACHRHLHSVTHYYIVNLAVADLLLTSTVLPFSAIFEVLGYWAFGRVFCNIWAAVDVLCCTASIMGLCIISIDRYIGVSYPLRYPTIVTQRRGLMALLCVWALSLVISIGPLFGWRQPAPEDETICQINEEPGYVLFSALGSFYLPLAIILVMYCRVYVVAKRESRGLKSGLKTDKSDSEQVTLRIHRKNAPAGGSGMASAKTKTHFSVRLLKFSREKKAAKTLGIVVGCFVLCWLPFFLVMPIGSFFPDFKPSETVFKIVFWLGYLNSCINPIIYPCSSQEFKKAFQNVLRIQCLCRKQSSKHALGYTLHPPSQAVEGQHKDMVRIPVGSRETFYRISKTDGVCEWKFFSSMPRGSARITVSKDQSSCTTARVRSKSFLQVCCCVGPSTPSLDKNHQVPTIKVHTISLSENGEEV
# [7] = target: Gamma-aminobutyric acid receptor subunit alpha-1 (Rattus norvegicus, UniProt P62813)
# Gamma-aminobutyric acid receptor subunit alpha-1, sequence (P62813 whole entry): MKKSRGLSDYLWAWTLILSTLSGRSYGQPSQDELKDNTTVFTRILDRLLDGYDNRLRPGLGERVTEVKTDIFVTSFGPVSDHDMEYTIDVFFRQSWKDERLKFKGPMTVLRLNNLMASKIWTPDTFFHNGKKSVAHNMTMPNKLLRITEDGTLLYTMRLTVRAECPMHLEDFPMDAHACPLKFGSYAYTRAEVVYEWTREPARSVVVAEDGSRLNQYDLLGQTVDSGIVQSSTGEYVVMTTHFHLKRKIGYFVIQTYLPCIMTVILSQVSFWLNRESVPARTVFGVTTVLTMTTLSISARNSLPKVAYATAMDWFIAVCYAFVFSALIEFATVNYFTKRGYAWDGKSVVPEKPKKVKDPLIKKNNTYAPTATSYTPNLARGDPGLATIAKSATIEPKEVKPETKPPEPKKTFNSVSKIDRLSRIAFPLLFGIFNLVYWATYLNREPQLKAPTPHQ
# [8] = target: T3, Alpha-1A adrenergic receptor; type: functional, cell-based; remark: listed apart in the source
# [9] = target: T4, Progesterone receptor (Homo sapiens, UniProt P06401)
# T4 sequence (P06401 whole entry): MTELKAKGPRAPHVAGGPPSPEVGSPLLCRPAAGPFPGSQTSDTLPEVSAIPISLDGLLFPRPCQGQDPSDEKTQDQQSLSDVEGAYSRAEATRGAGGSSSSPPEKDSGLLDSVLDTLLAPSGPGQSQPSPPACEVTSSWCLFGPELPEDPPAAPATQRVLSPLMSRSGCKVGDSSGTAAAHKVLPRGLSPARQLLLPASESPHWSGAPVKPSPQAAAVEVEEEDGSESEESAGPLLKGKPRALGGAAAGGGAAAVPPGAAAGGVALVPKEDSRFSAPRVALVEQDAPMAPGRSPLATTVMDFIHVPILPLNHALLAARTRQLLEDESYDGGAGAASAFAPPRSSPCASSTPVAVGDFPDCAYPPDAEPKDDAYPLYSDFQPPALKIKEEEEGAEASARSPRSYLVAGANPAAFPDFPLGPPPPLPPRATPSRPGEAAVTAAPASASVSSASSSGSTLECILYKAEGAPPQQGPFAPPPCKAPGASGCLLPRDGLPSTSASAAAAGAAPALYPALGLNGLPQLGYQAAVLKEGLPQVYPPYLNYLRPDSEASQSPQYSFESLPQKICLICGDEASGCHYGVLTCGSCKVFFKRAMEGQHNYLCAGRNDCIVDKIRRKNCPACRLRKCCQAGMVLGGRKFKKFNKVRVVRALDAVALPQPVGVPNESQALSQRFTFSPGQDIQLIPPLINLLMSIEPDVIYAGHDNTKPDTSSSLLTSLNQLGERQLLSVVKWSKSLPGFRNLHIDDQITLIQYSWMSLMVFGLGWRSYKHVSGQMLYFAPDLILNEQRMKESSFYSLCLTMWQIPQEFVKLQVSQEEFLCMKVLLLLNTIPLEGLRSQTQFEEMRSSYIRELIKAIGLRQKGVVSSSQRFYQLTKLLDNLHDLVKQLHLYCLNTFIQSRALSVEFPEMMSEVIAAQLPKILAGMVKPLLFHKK
# [10] = target: D(3) dopamine receptor (Homo sapiens, UniProt P35462)
# D(3) dopamine receptor, sequence (P35462 whole entry): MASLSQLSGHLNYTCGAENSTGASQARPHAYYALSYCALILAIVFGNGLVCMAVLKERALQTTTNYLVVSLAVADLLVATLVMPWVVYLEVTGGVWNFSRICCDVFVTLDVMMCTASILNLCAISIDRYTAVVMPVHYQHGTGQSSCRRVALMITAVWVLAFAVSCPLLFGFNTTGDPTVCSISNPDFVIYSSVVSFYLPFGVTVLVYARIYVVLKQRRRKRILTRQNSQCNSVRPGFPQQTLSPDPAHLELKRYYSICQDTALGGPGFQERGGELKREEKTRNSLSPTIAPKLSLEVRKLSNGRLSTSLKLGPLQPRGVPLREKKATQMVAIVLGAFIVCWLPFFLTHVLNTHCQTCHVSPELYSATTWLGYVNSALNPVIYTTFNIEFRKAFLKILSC
# [11] = target: Vascular endothelial growth factor receptor 2 (Homo sapiens, UniProt P35968); type: functional
# Vascular endothelial growth factor receptor 2, sequence (P35968 whole entry): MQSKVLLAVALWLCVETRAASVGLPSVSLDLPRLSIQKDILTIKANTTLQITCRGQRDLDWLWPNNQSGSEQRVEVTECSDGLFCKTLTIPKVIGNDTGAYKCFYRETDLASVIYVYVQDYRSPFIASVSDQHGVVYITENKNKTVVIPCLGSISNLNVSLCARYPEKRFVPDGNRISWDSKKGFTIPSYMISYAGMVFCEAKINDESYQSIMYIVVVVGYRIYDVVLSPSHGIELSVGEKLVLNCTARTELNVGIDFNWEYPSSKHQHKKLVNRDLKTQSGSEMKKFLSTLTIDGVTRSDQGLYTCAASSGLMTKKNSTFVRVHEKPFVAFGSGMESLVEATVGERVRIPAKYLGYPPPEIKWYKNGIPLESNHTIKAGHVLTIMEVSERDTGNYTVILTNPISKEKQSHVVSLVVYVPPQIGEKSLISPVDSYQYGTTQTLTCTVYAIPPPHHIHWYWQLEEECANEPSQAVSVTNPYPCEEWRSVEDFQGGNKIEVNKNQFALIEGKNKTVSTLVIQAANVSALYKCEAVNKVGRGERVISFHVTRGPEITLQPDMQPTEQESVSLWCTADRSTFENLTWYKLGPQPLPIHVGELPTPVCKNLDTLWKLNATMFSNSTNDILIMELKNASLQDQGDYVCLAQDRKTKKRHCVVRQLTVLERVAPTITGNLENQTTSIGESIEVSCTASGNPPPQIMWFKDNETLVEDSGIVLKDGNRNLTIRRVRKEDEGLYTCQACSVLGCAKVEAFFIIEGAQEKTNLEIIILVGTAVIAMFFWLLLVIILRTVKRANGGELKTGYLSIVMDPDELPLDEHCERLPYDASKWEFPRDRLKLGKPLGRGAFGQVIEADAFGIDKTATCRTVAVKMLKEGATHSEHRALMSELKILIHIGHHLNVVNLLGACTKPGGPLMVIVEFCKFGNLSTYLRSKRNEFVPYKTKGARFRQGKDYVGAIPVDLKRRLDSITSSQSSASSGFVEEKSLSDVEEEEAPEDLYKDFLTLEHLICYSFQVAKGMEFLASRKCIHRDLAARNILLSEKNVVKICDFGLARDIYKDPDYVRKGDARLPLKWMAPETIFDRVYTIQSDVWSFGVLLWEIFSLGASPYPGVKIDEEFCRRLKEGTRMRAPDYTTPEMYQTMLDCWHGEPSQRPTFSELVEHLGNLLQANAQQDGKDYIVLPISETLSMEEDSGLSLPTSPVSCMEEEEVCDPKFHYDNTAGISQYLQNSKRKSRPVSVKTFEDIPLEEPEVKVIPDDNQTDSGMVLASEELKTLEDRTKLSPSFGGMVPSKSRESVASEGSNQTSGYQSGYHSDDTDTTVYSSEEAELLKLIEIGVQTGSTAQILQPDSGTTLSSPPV
# [12] = target: Cannabinoid receptor 1 (Homo sapiens, UniProt P21554); type: functional, cell-based
# Cannabinoid receptor 1, sequence (P21554 whole entry): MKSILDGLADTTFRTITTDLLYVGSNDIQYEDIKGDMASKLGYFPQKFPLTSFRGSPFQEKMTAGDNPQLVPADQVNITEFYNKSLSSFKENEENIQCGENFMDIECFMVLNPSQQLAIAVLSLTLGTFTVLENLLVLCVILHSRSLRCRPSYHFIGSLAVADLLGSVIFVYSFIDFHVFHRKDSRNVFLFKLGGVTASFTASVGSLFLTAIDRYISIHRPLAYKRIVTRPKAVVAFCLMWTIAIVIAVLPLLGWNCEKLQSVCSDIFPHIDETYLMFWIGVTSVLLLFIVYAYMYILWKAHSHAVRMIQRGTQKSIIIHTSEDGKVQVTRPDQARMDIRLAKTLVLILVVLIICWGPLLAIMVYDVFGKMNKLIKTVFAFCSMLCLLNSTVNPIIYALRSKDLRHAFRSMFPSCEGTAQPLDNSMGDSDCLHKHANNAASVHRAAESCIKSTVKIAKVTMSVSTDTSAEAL
# [13] = target: T3, Alpha-1A adrenergic receptor
# Further: assay procedure not described here.
SMILES,AC50 [1] [µM],AC50 [2] [µM],AC50 [3] [µM],AC50 [4] [µM],AC50 [5] [µM],AC50 [6] [µM],AC50 [7] [µM],AC50 [8] [µM],AC50 [9] [µM],AC50 [10] [µM],AC50 [11] [µM],AC50 [12] [µM],AC50 [13] [µM]
CC(C(=O)O)c1ccc(N2CC=CC2)c(Cl)c1 (stereo not given) [PIRPROFEN],> 30,> 30,> 30,> 10,> 30,> 30,> 10,> 30,> 30,> 30,> 30,> 30,> 10
CN(CCOc1ccc(NS(C)(=O)=O)cc1)CCc1ccc(NS(C)(=O)=O)cc1 [DOFETILIDE],> 30,> 30,> 30,> 10,> 30,> 30,> 10,> 30,> 30,3.36,> 30,> 30,> 10
Nc1nc(N)c2nc(-c3ccccc3)c(N)nc2n1,> 3,> 30,> 30,,> 30,> 30,> 30,> 30,> 30,> 30,> 30,> 30,> 10
Oc1ncnc2[nH]ncc12 [ALLOPURINOL],> 30,> 30,> 30,,> 30,> 30,> 10,> 30,> 30,> 30,> 30,> 30,2.88
